Measured values from PMC6109062, “The dual methyltransferase METTL13 targets N terminus and Lys55 of eEF1A and modulates codon-specific translation rates” (Nature Communications, 2018).

Target: T1, MT13-N (N-terminal methyltransferase domain of METTL13) (Homo sapiens, UniProt Q8N6R0)
T1 construct: N-terminal methyltransferase domain, His6-tagged, E. coli
T1 sequence (Q8N6R0 1-245 limits assumed): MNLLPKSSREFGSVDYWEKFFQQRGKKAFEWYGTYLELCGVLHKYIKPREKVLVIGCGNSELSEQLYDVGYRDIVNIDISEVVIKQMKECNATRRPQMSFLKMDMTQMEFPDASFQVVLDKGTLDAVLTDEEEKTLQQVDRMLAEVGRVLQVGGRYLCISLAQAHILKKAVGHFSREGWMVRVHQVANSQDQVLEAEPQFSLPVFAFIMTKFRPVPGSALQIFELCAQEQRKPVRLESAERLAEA
Experiment: [3H]AdoMet methyl transfer to eEF1A1, fluorography; MS
Assay type: biochemical
Conditions: co-substrate eEF1A1 (Lys55), no nucleotide added; pH 7.4, 1 mM MgCl2, 30 °C; labelled compound

C[S+](CC[C@H](N)C(=O)O)C[C@H]1O[C@@H](n2cnc3c(N)ncnc32)[C@H](O)[C@@H]1O (stereo partly shown) [AdoMet]
[3H]AdoMet methyl transfer to eEF1A1, fluorography; MS: Recombinant eEF1A was incubated with MT13-N in the presence of AdoMet
